In ChEMBL document CHEMBL4680157, “Design, synthesis and biological evaluation of novel TRβ selective agonists sustained by ADME-toxicity analysis” (Eur J Med Chem, 2020):
Activity calls are given as the source filed them. The rule behind the calls is not given here.

Tests used:
[1] = Toxicity in F344 rat assessed as effect on serum AST/GOT level at 75 ug per 100 g of body weight, ig administered daily for 3 days (reference value: 153 +/- 11 U/L); conditions: in vivo, po, 72 h, dose 75 µg, time 3 day
[2] = Toxicity in F344 rat assessed as effect on serum bilirubin level at 50 ug per 100 g body weight, ig administered daily for 3 days (reference value: 1.4 +/- 0.2 mg/dl); conditions: in vivo, po, 72 h, dose 50 µg, time 3 day
[3] = Toxicity in F344 rat assessed as effect on serum ALT/GPT level at 75 ug per 100 g body weight, ip administered daily for 3 days (reference value: 46 +/- 4 U/L); type: organism-based; conditions: in vivo, 72 h, dose 75 µg, time 3 day
[4] = Toxicity in F344 rat assessed as effect on serum glucose level at 75 ug per 100 g body weight, ip administered daily for 3 days (reference value: 151 +/- 13.5 mg/dl); type: organism-based; conditions: in vivo, 72 h, dose 75 µg, time 3 day
[5] = Toxicity in F344 rat assessed as effect on serum glucose level at 75 ug per 100 g body weight, ig administered daily for 3 days (reference value: 151 +/- 13.5 mg/dl); conditions: in vivo, po, 72 h, dose 75 µg, time 3 day
[6] = Toxicity in F344 rat assessed as effect on serum ALT/GPT level at 100 ug per 100 g body weight, ig administered daily for 3 days (reference value: 46 +/- 4 U/L); conditions: in vivo, po, 72 h, dose 100 µg, time 3 day
[7] = Toxicity in F344 rat assessed as effect on serum triglycerides level at 75 ug per 100 g body weight, ig administered daily for 3 days (reference value: 86.8 +/- 10.4 mg/dl); conditions: in vivo, po, 72 h, dose 75 µg, time 3 day
[8] = target: AMP-activated protein kinase, AMPK (Homo sapiens) (UniProt P54646+O43741+P54619+Q9UGJ0+Q9Y478+Q13131+Q9UGI9); assay: Activation of AMPK in human HepG2 cells assessed as ratio of phosphorylated ACC at 10 uM measured after 24 hrs by Western blot analysis; type: cell-based; conditions: filed as activator
[9] = Toxicity in F344 rat assessed as effect on serum cholesterol level at 75 ug per 100 g body weight, ig administered daily for 3 days (reference value: 67.2 +/- 2.5 mg/dl); conditions: in vivo, po, 72 h, dose 75 µg, time 3 day
[10] = Toxicity in F344 rat assessed as effect on serum triglycerides level at 75 ug per 100 g body weight, ip administered daily for 3 days (reference value: 86.8 +/- 10.4 mg/dl); type: organism-based; conditions: in vivo, 72 h, dose 75 µg, time 3 day
[11] = Toxicity in F344 rat assessed as effect on serum ALT/GPT level at 50 ug per 100 g body weight, ig administered daily for 3 days (reference value: 46 +/- 4 U/L); conditions: in vivo, po, 72 h, dose 50 µg, time 3 day
[12] = Toxicity in F344 rat assessed as effect on serum bilirubin level at 100 ug per 100 g body weight, ig administered daily for 3 days (reference value: 1.4 +/- 0.2 mg/dl); conditions: in vivo, po, 72 h, dose 100 µg, time 3 day
[13] = Toxicity in F344 rat assessed as effect on serum triglycerides level at 100 ug per 100 g body weight, ig administered daily for 3 days (reference value: 86.8 +/- 10.4 mg/dl); conditions: in vivo, po, 72 h, dose 100 µg, time 3 day
[14] = target: T1, TRalpha (thyroid hormone receptor alpha) (Homo sapiens, UniProt P10827); assay: Agonist activity at TRalpha (unknown origin) at 1 uM by Lanthascreen TR-FRET assay relative to control; conditions: read-out: Activity
T1 sequence (P10827 whole entry): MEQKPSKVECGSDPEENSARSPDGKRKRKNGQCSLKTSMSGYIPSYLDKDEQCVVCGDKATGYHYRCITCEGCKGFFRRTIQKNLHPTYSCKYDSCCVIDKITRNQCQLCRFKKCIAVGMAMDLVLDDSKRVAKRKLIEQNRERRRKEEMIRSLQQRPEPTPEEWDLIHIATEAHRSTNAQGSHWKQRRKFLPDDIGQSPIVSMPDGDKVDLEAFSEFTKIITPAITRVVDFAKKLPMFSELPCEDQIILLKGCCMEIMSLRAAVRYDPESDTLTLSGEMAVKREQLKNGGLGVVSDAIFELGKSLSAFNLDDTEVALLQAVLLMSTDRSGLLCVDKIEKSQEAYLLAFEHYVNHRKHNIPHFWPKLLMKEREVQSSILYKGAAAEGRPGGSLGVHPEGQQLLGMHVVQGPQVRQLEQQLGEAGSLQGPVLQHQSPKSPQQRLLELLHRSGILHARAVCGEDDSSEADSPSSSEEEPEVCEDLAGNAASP

[15] = target: T2, Thyroid hormone receptor alpha (Homo sapiens, UniProt P10827); assay: Agonist activity at TRalpha (unknown origin) by Lanthascreen TR-FRET assay
T2 sequence (P10827 whole entry): T1 sequence (P10827 whole entry)

[16] = target: T3, Thyroid hormone receptor beta (Homo sapiens, UniProt P10828); assay: Agonist activity at TRbeta (unknown origin) by Lanthascreen TR-FRET assay
T3 sequence (P10828 whole entry): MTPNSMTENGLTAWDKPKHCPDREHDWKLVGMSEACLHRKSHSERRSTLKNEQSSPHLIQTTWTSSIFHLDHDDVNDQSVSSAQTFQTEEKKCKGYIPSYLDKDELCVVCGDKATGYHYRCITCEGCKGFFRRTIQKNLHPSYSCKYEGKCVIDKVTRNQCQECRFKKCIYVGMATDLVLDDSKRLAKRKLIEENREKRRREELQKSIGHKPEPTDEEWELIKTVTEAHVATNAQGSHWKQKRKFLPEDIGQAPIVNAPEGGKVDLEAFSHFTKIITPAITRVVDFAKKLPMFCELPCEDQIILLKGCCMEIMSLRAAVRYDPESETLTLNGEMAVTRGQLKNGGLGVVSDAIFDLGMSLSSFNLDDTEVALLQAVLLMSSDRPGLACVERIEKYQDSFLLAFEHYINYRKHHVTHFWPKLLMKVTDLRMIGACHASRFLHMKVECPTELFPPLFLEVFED

Activity [8] | activity at 1 µM [14] | EC50 [15] | EC50 [16] | SMILES | Activity [1] | Activity [2] | Activity [3] | Activity [4] | Activity [5] | Activity [6] | Activity [7] | Activity [9] | Activity [10] | Activity [11] | Activity [12] | Activity [13]
Active |  |  |  | CC(=O)Nc1ccc(Cc2c(C)cc(OCC(=O)O)cc2C)cc1C(C)C | 133 U/L | 1.1 mg/dL | 38 U/L | 132 mg/dL | 132 mg/dL | 37 U/L | 67 mg/dL | 71.4 mg/dL | 74.2 mg/dL | 46 U/L | 1.1 mg/dL | 62.8 mg/dL
Active | 30% |  |  | Cc1cc(OCC(=O)O)cc(C)c1Cc1ccc(N)c(C(C)C)c1 | 119 U/L | 1.3 mg/dL | 36 U/L | 129 mg/dL | 153 mg/dL | 42 U/L | 74 mg/dL | 68.6 mg/dL | 79.6 mg/dL | 41 U/L | 1 mg/dL | 67.8 mg/dL
 |  | 54 nM | 32 nM | Cc1cc(OCC(=O)O)cc(C)c1Cc1ccc(O)cc1 |  |  |  |  |  |  |  |  |  |  |  | 
